Measurements: ChEMBL document CHEMBL2202973, “Specific interactions between adenosine and streptavidin/avidin” (Bioorg Med Chem Lett, 2012)
pKd: −log10 of the molar value. Active and inactive are the calls of the source. The rule behind the calls is not given here.

Legend:
[1] = target: Streptavidin (Streptomyces avidinii) (UniProt P22629); test: Binding affinity to Streptomyces avidinii assessed as changes in protein fluorescence intensity by fluorescence spectral analysis method
Avidin = Avidin (Gallus gallus, UniProt P02701); test: Binding affinity to chick avidin using fluorescence spectral analysis method based double reciprocal plot analysis; details: read-out: Kd(app)
Albumin = Albumin (Bos taurus, UniProt P02769); test: Binding affinity to BSA assessed as changes in tryptophan fluorescence intensity by fluorescence spectral analysis method; details: cattle
Streptavidin = Streptavidin (Streptomyces avidinii, UniProt P22629); test: Binding affinity to Streptomyces avidinii streptavidin using fluorescence spectral analysis method based double reciprocal plot analysis; details: read-out: Kd(app)
[2] = target: Streptavidin (Streptomyces avidinii) (UniProt P22629); test: Binding affinity to Streptomyces avidinii assessed as changes in protein fluorescence intensity in presence of biotin by fluorescence spectral analysis method
Avidin (Gallus gallus) [3] = target: Avidin (Gallus gallus) (UniProt P02701); test: Binding affinity to chick avidin assessed as changes in protein fluorescence intensity in presence of biotin by fluorescence spectral analysis method
Avidin (Gallus gallus) [4] = target: Avidin (Gallus gallus) (UniProt P02701); test: Binding affinity to chick avidin assessed as changes in protein fluorescence intensity by fluorescence spectral analysis method
[5] = target: Streptavidin (Streptomyces avidinii) (UniProt P22629); test: Binding affinity to Streptomyces avidinii assessed as quenching rate constant by fluorescence quenching spectral method
Avidin (Gallus gallus) [6] = target: Avidin (Gallus gallus) (UniProt P02701); test: Binding affinity to chick avidin assessed as quenching rate constant by fluorescence quenching spectral method

Sequence of Streptavidin (Streptomyces avidinii) (P22629 whole entry): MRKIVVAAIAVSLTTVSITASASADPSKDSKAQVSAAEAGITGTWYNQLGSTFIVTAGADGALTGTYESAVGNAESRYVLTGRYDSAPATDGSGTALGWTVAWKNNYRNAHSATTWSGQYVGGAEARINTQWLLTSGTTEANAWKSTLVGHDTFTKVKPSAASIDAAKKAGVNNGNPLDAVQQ
Sequence of Avidin (Gallus gallus) (P02701 whole entry): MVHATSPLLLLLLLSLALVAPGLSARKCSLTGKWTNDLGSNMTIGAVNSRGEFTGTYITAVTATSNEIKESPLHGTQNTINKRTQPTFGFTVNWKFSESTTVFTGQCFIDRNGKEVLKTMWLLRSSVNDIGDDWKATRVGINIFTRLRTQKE
Sequence of Streptavidin (P22629 whole entry): as the sequence (P22629 whole entry) above
Sequence of Avidin (P02701 whole entry): as the sequence (P02701 whole entry) above
Sequence of Albumin (P02769 whole entry): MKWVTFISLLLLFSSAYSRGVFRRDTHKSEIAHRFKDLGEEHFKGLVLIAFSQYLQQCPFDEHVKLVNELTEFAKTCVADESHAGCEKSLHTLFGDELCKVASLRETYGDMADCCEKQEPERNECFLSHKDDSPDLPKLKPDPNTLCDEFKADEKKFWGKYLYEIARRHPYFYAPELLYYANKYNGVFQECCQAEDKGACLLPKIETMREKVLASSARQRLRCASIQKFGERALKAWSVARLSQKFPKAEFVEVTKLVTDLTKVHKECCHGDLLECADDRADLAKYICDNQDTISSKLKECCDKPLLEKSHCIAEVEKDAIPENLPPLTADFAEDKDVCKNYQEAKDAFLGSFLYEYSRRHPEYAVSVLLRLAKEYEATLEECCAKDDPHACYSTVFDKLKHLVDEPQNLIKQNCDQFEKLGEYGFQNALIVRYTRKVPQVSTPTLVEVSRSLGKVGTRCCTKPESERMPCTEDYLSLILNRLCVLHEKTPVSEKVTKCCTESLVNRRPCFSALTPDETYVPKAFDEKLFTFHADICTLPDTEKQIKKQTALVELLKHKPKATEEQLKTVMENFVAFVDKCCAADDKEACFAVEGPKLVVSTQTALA

SMILES: Nc1ncnc2c1ncn2[C@@H]1O[C@H](COP(=O)(O)OP(=O)(O)OP(=O)(O)O)[C@@H](O)[C@H]1O
- Activity [1]: inactive

SMILES: O=C(O)CCCC[C@@H]1SC[C@@H]2NC(=O)N[C@@H]21
- Activity [1]: Active

SMILES: Nc1ncnc2c1ncn2[C@@H]1O[C@H](CO)[C@@H](O)[C@H]1O [ADENOSINE]
- pKd (Avidin): 3.93
- Activity (Albumin): Not Active
- pKd (Streptavidin): 3.77
- Activity [2]: inactive
- Activity (Avidin (Gallus gallus) [3]): inactive
- Activity (Avidin (Gallus gallus) [4]): Active
- Activity [1]: Active
- Kq [5]: 8.5 ×10¹⁰ L/mol/s
- Kq (Avidin (Gallus gallus) [6]): 1.28 ×10¹¹ L/mol/s
